Results as given in US9234006B2, “Compounds” (Novacta Biosystems Limited, priority 2011, dated 2016).
Counter-ions that a name gives are not always drawn. Where a SMILES comes first, the peptide text is derived from it. Bridges are numbered along the chain shown (N, C = ends). [ ]: non-standard residue; d: D form. The star is where a group is joined. ξ: configuration not given here. Thr(3ξ) = CC(O)[C@H](N)C(=O)O; Dab = NCC[C@H](N)C(=O)O; X1 = CCCCCCC(O)C(=O)*; GABA = NCCCC(=O)O

Key:
[1] = test system: E. coli clinical isolates and resistant strains; assay type: cell-based; conditions: clinical isolates and resistant strains
Method: The in vitro antibacterial activities of the compounds of examples 2 and 6 were evaluated against a panel of […] Gram-negative bacterial isolates alongside Colistin. The panel consisted of 100 clinical isolates of each of A. baumannii, E. coli, K. pneumoniae and P. aeruginosa. The panel represented the current epidemiology in Europe and the USA and included a number of relevant strains with defined resistant phenotypes to current clinically-used antibacterial agents. These resistant strains included 20 A. baumannii, 22 E. coli, 25 K. pneumoniae and 20 P. aeruginosa strains.
All compounds were tested up to a maximum concentration of 64 μg/mL with the exception of colistin, which was evaluated up to a maximum concentration of 16 μg/mL.

E. coli ATCC25922 = assay: MIC susceptibility testing, broth microdilution in CaMHB; assay type: cell-based, Escherichia coli
How it was run: (§1)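 Growth inhibition was read as MIC after inoculation with a 100-fold dilution of log-phase culture at OD600 0.2-0.3, […]. That subculture came from an 18-20 hour CaMHB overnight at 37° C, 250 rpm. Tests were duplicated.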

E. coli NCTC9001 = assay: as above; assay type: cell-based, Escherichia coli
How it was run: as §1

E. coli NCTC12900 = assay: as above; assay type: cell-based, Escherichia coli
How it was run: as §1

E. coli ATCC700928 = assay: as above; assay type: cell-based, Escherichia coli
How it was run: as §1

A. baumannii ATCC19606 = assay: as above; assay type: cell-based, Acinetobacter baumannii
How it was run: as §1

A. baumannii NCTC7844 = assay: as above; assay type: cell-based, Acinetobacter baumannii
How it was run: as §1

[2] = Pharmacokinetic and urinary clearance studies in rats; assay type: in vivo
Method: Drug solutions were prepared at 4 mg/mL in Normal Saline and the pH adjusted to 6-7 by adding the appropriate volume of 0.1 M H2SO4 or 4.2% NaHCO3. The solutions were filter-sterilized and stored at −80° C. before use. On the day of the experiment, drug solutions were diluted to 1 mg/mL with sterile Normal Saline.
Groups of 3 male Sprague Dawley rats were acclimatised for a minimum of 4 days before the study. Rats were anesthetized using isofluorane and a cannula was inserted into the jugular vein. One day after surgery, rats were dosed with an intravenous bolus injection of the solution at 1 mg/kg through the cannula, followed by washing with Normal Saline. Blood was collected manually through the cannula prior to administration of the compound and at 0.08, 0.25, 0.5, 1, 3, 6, 8 and 24 h thereafter. Plasma was harvested by centrifugation immediately after blood collection. Twenty-four hour urine samples were collected prior to and after administration of the compound in 0-4 h, 4-6 h, and 6-24 h intervals. Plasma and urine samples were frozen at −20° C.
Determination of the plasma and urine concentrations of the drug was performed by Liquid Chromatography Mass Spectrometry (LC-MS/MS). Before analysis the plasma and urine samples were prepared as follows. Plasma samples were thawed on the day of analysis and mixed with 3 volumes of acetonitrile containing 0.1% (v/v) formic acid and 100 ng/mL of internal standard. After centrifugation, supernatants were transferred to a 96-well plate and diluted 1:1 with water ready for analysis by LC-MS/MS. Urine samples were purified by solid-phase extraction (SPE) on Oasis HLB cartridges (Waters, UK) eluting with 100% methanol. An aliquot was transferred to a 96 well plate and diluted 1:1 with water before addition of internal standard solution, ready for analysis by LC-MS/MS.
The pharmacokinetic parameters were determined by non-compartmental analysis using WinNonLin v5.3. The urinary recovery was recorded as the percentage of intact drug recovered in the urine for the first 24 h after injection.

[3] = test system: P. aeruginosa ATCCCRM-9027; assay: MIC susceptibility testing, broth microdilution in CaMHB; assay type: cell-based, Pseudomonas aeruginosa
How it was run: as §1

P. aeruginosa ATCC27853 = assay: as above; assay type: cell-based, Pseudomonas aeruginosa
How it was run: as §1

P. aeruginosa ATCC 9721 = assay: as above; assay type: cell-based, Pseudomonas aeruginosa
How it was run: as §1

P. aeruginosa ATCC10145 = assay: as above; assay type: cell-based, Pseudomonas aeruginosa
How it was run: as §1

K. pneumoniae NCTC7427 = assay: as above; assay type: cell-based, Klebsiella pneumoniae
How it was run: as §1

K. pneumoniae NCTC8172 = assay: as above; assay type: cell-based, Klebsiella pneumoniae
How it was run: as §1

K. pneumoniae ATCC 4352 = assay: as above; assay type: cell-based, Klebsiella pneumoniae
How it was run: as §1

[4] = test system: K. pneumoniae ATCCBAA-1706; assay: as above; assay type: cell-based, Klebsiella pneumoniae; conditions: Table 4
How it was run: as §1

[5] = Table 4A, different batches of cation-adjusted Muller-Hinton broth
[6] = male, Sprague Dawley, rat, in vivo, iv, 1 mg/kg
[7] = P. aeruginosa AATCCRM 9027, Table 4A, different batches of cation-adjusted Muller-Hinton broth
[8] = P. aeruginosa ATCCCRM-9027, Table 4
[9] = P. aeruginosa ATCC 9721, Table 4
[10] = P. aeruginosa ATCC9721, Table 4A, different batches of cation-adjusted Muller-Hinton broth
[11] = K. pneumoniae ATCC 4352, Table 4
[12] = K. pneumoniae ATCC4352, Table 4A, different batches of cation-adjusted Muller-Hinton broth
[13] = male Sprague Dawley rats, intravenous bolus 1 mg/kg
[14] = male Sprague Dawley rats, intravenous bolus 1 mg/kg, plasma

| Molecule | MIC (E. coli ATCC25922; Table 4) | MIC (E. coli ATCC25922; [5]) | MIC (E. coli NCTC9001; Table 4) | MIC (E. coli NCTC9001; [5]) | MIC (E. coli NCTC12900; [5]) | MIC (E. coli ATCC700928; Table 4) | MIC (E. coli ATCC700928; [5]) | MIC (A. baumannii ATCC19606; Table 4) | MIC (A. baumannii ATCC19606; [5]) | MIC (A. baumannii NCTC7844; Table 4) | MIC (A. baumannii NCTC7844; [5]) | MIC [3, 7] | MIC [3, 8] | MIC (P. aeruginosa ATCC27853; Table 4) | MIC (P. aeruginosa ATCC27853; [5]) | MIC (P. aeruginosa ATCC 9721; [9]) | MIC (P. aeruginosa ATCC 9721; [10]) | MIC (P. aeruginosa ATCC10145; Table 4) | MIC (P. aeruginosa ATCC10145; [5]) | MIC (K. pneumoniae NCTC7427; Table 4) | further results |
| --- | --- | --- | --- | --- | --- | --- | --- | --- | --- | --- | --- | --- | --- | --- | --- | --- | --- | --- | --- | --- | --- |
| CCCCCCC(O)C(=O)N[C@H](C(=O)N[C@@H](CCN)C(=O)N[C@H]1CCNC(=O)[C@H](C(C)O)NC(=O)[C@H](CCN)NC(=O)[C@H](CCN)NC(=O)[C@H](CC(C)C)NC(=O)[C@@H](Cc2ccccc2)NC(=O)[C@H](CCN)NC1=O)C(C)O (stereo partly drawn) [Example 2, [2(R,S)-2-Hydroxyoctanoyl] Polymyxin B Nonapeptide, Sulphate Salt] (X1-[Thr(3ξ)][Dab][Dab][Dab][dF]L[Dab][Dab][Thr(3ξ)]; lactam 3-C) | 1 micrograms/mL | 2 micrograms/mL | 0.25 micrograms/mL | 2 micrograms/mL | 8 micrograms/mL | 0.25 micrograms/mL | 0.5 micrograms/mL | 2 micrograms/mL | 2 micrograms/mL | 2 micrograms/mL | 4 micrograms/mL | 0.5 micrograms/mL | 0.25 micrograms/mL | 0.5 micrograms/mL | 0.5 micrograms/mL | 2 micrograms/mL | 0.5 micrograms/mL | 1 micrograms/mL | 1 micrograms/mL | 4 micrograms/mL | MIC50 Clinical isolates [1]: 2 µg/mL; MIC50 Resistant strains [1]: 1 µg/mL; MIC90 Clinical isolates [1]: 4 µg/mL; MIC90 Resistant strains [1]: 2 µg/mL; MIC Range Clinical isolates [1]: 1 to 16 µg/mL; MIC Range Resistant strains [1]: 0.5 to 4 µg/mL; MIC (E. coli NCTC12900; Table 4): 0.25 micrograms/mL; AUC(0-inf) [2, 6]: 4010 ng·h/mL; Cmax [2, 6]: 2400 ng/mL; Vd [2, 6]: 0.488 L/kg; clearance [2, 6]: 4.18 mL/min/kg; half-life [2, 6]: 1.34 h; MIC (K. pneumoniae NCTC7427; [5]): 0.5 micrograms/mL; MIC (K. pneumoniae NCTC8172; Table 4): 4 micrograms/mL; MIC (K. pneumoniae NCTC8172; [5]): 4 micrograms/mL; MIC (K. pneumoniae ATCC 4352; [11]): 0.5 micrograms/mL; MIC (K. pneumoniae ATCC 4352; [12]): 1 micrograms/mL; MIC [4]: 0.5 micrograms/mL |
| CC(C)C[C@@H]1NC(=O)[C@@H](Cc2ccccc2)NC(=O)[C@H](CCN)NC(=O)[C@@H](NC(=O)[C@H](CCN)NC(=O)[C@@H](NC(=O)CCCN)[C@@H](C)O)CCNC(=O)[C@H]([C@@H](C)O)NC(=O)[C@H](CCN)NC(=O)[C@H](CCN)NC1=O [Example 6, 4-Aminobutanoyl Polymyxin B Nonapeptide, Sulphate Salt] (H-[GABA]T[Dab][Dab][Dab][dF]L[Dab][Dab]T; lactam 4-C) | 0.5 micrograms/mL | 2 micrograms/mL | 1 micrograms/mL | 8 micrograms/mL | 8 micrograms/mL | 0.125 micrograms/mL | 2 micrograms/mL | 0.25 micrograms/mL | 4 micrograms/mL | 2 micrograms/mL | 2 micrograms/mL | 0.25 micrograms/mL | 0.125 micrograms/mL | 0.25 micrograms/mL | 0.25 micrograms/mL | 0.125 micrograms/mL | 0.125 micrograms/mL | 0.25 micrograms/mL | 0.5 micrograms/mL | 0.125 micrograms/mL | MIC50 Clinical isolates [1]: 2 µg/mL; MIC50 Resistant strains [1]: 0.5 µg/mL; MIC90 Clinical isolates [1]: 8 µg/mL; MIC90 Resistant strains [1]: 4 µg/mL; MIC Range Resistant strains [1]: 0.06 to 4 µg/mL; MIC (E. coli NCTC12900; Table 4): 2 micrograms/mL; AUC(0-inf) [2, 6]: 2620 ng·h/mL; Cmax [2, 6]: 3580 ng/mL; Vd [2, 6]: 0.289 L/kg; clearance [2, 6]: 6.43 mL/min/kg; half-life [2, 6]: 0.56 h; MIC (K. pneumoniae NCTC7427; [5]): 0.125 micrograms/mL; MIC (K. pneumoniae NCTC8172; [5]): 16 micrograms/mL; MIC (K. pneumoniae ATCC 4352; [11]): 0.125 micrograms/mL; MIC (K. pneumoniae ATCC 4352; [12]): 1 micrograms/mL; MIC [4]: 0.25 micrograms/mL |
| Polymyxin B [reference compound] | 0.5 micrograms/mL | 1 micrograms/mL | 0.25 micrograms/mL | 0.25 micrograms/mL | 0.25 micrograms/mL | 0.25 micrograms/mL | 0.25 micrograms/mL | 0.5 micrograms/mL | 0.125 micrograms/mL | 0.25 micrograms/mL | 0.25 micrograms/mL | 0.25 micrograms/mL | 0.25 micrograms/mL | 0.5 micrograms/mL | 0.5 micrograms/mL | 0.5 micrograms/mL | 0.125 micrograms/mL | 0.5 micrograms/mL | 1 micrograms/mL | 0.25 micrograms/mL | CL (clearance) [2, 13]: 7.15 mL/min/kg; Vd [2, 13]: 1.12 L/kg; AUC(0-inf) [2, 14]: 2372 ng·h/mL; Cmax [2, 14]: 1455 ng/mL; t1/2 [2, 14]: 1.94 h; Urinary recovery ([2]; male Sprague Dawley rats, intravenous bolus 1 mg/kg, intact drug in urine in first 24 h): 0.3 % dose; MIC (K. pneumoniae NCTC7427; [5]): 0.25 micrograms/mL; MIC (K. pneumoniae NCTC8172; Table 4): 0.5 micrograms/mL; MIC (K. pneumoniae NCTC8172; [5]): 1 micrograms/mL; MIC (K. pneumoniae ATCC 4352; [11]): 0.5 micrograms/mL; MIC (K. pneumoniae ATCC 4352; [12]): 0.25 micrograms/mL; MIC [4]: 0.25 micrograms/mL |
